Publication PMC6767265, “Cytotoxicity and Apoptosis Induction of Coumarins and Carbazole Alkaloids from Clausena Harmandiana” (Molecules, 2019)
Marks after values point to notes of the source that are not given here.

Key:
[1] = test system: noncancerous African green monkey kidney epithelial cell line (Vero); test: Cell viability assay (neutral red), Vero; type: cell-based; design: key to IC50 Vero: inactive: Inactive means cell viability percentage was >50% at the maximum concentration used (>100 µM for the compound or >100 µg/mL for the extract); settings: 24 h, inactive = viability >50% at >100 µM
Experimental: (§1) The human lung adenocarcinoma cell line (SK-LU-1), human colon carcinoma cell line (HCT116), human hepatocellular carcinoma cell line (HepG2) and noncancerous African green monkey kidney epithelial cell line (Vero) were cultured in Dulbecco’s modified Eagle’s medium (DMEM) supplemented with 10% fetal bovine serum, 100 IU/mL penicillin and […] streptomycin. Cells were incubated at 37 °C with 95% air and 5% CO2 until they reached approximately 80% confluence before use.
(§2) Cell viability assay was assessed by neutral red (NR). Briefly, cells at a density of 3 × 10^4 cells/well were seeded in 96-wells plate and incubated for 24 h. The sample at concentration, ranging from 10 to 500 µM, were added and incubated for 24 h. After incubation time, cells were washed with PBS. NR reagent (50 µg/mL) was added to each well and incubated for another 2 h. After that, cells were washed with PBS and lyzed with 0.33% HCl in isopropanol. Cisplatin was used as a positive control. The absorbance of NR was detected using microplate reader (Tecan, Lyon, France) at 520 nm. The percentage of cell viability was calculated vis-à-vis the untreated cells and cytotoxicity was expressed as the inhibition concentration at 50% (IC50). The final DMSO concentration was not exceed 0.1%v/v to lessen the cytotoxicity (<10%).

[2] = Ferric reducing antioxidant power (FRAP) assay; type: biochemical; settings: 100 µM compound
Experimental: FRAP assay was performed following the pervious study with slight modification. FRAP reagent was prepared by mixing 300 mM acetate buffer (pH 3.6), 20 mM ferric chloride solution and 10 mM TPTZ solution in the ratio of 10:1:1 and incubated at 37 °C for 30 min. Then, 150 µL of FRAP reagent was added with 50 µL of the sample (100 µM of isolated compounds or 100 µg/mL of the CH2Cl2 crude extract) in each well of the 96-wells plate. The absorbance was measured at 595 nm using microplate reader (Tecan, Lyon, France). Trolox was used as a positive control. The FRAP value was calculated from the linear equation between the absorbance and ferrous sulfate standard curves (y = 0.0548x + 0.0213, R^2 = 0.9989) and expressed as µM of ferrous sulfate equivalents.

[3] = test system: human lung adenocarcinoma cell line (SK-LU-1); test: Cell viability assay (neutral red), SK-LU-1; type: cell-based; design: key to IC50 SK-LU-1: inactive: Inactive means cell viability percentage was >50% at the maximum concentration used (>100 µM for the compound or >100 µg/mL for the extract); settings: for IC50 SK-LU-1 / IC50: 24 h, neutral red, inactive = viability >50% at >100 µM; for Selectivity Index SK-LU-1: cancer cells over noncancerous Vero cells
Experimental: as §1
as §2, with “The sample at concentration, ranging from 10 to 500 µM, were added and incubated for 24 h.” left out

[4] = test system: human colon carcinoma cell line (HCT116); test: Cell viability assay (neutral red), HCT116; type: cell-based; design: key to IC50 HCT116: inactive: Inactive means cell viability percentage was >50% at the maximum concentration used (>100 µM for the compound or >100 µg/mL for the extract); settings: for IC50 HCT116 / IC50: 24 h, neutral red, inactive = viability >50% at >100 µM; for Selectivity Index HCT116: cancer cells over noncancerous Vero cells
Experimental: as §1
as §2, with “The sample at concentration, ranging from 10 to 500 µM, were added and incubated for 24 h.” left out

[5] = DPPH radical scavenging assay; type: biochemical; settings: for DPPH Assay IC50 / IC50: 30 min in the dark, absorbance 517 nm; for DPPH radical scavenging activity classification: classified from IC50 in µg/mL
Experimental: The 2,2–diphenyl–1–picrylhydrazyl (DPPH) radical scavenging assay was conducted as per the previous method. Briefly, the stock solutions of 10 mM DPPH was prepared in methanol. The DPPH was mixed with samples (100 µL each) at various concentrations (1−500 µM) in 96 wells plate and incubated for 30 min in a dark condition. The absorbance of DPPH radical was measured at 517 nm using a microplate reader (Tecan, Lyon, France). Trolox was used as a positive control. The half maximum inhibitory concentration (IC50 value) was calculated from the plot of percentage of DDPH radical inhibition versus concentration of samples using the following formula: % DPPH radical inhibition = [(Ab − As)/Ab] × 100,(1) where Ab = absorbance of the reagent blank, and As = absorbance of the sample. Each experiment was done in five replications and results are expressed as average values.

[6] = test system: human hepatocellular carcinoma cell line (HepG2); test: Cell viability assay (neutral red), HepG2; type: cell-based; settings: for IC50: 24 h, neutral red; for Selectivity Index HepG2: cancer cells over noncancerous Vero cells
Experimental: as §1, §2

[7] = test system: HepG2 cells; test: Mode of cell death by Annexin V-FITC/PI staining, flow cytometry; type: cell-based, human
Source text: In this study, double staining of cells by Annexin V-FITC/propidium iodide (PI) was used to differentiate apoptosis from necrosis. The stages of apoptosis can be distinguished from necrotic cell death by flow cytometry using Annexin V-FITC/PI double staining of HepG2 cells. During the early stages of apoptosis, the phosphatidylserine comprising the cell membrane will externalize to be exposed to the surface of apoptotic cells and bind with Annexin V-FITC, showing a cell dot plot in Quadrant 4. The cell dot plot is positively stained with Annexin V-FITC but negatively stained with PI (+/−). When cells are damaged or undergo a late state of apoptosis, cells will lose their membrane integrity, including nuclear membrane integrity, so that PI can pass through the nuclear membrane, showing a cell dot plot in Quadrant 2. […] During cell undergo necrotic cell death, cells are stained and appear in Quadrant 1 (−/+). Normal cells are not stained and appear in Quadrant 3 (−/−). The total apoptotic cell death percentage was counted from the percentage of cells undergoing an early state and late state of apoptosis gathering from Quadrants 4 and 2, while the necrotic cell death percentage was counted from Quadrant 1, as shown in Figure 2.
The Annexin V-FITC and PI apoptosis assay kit (BioLegend, San Diego, CA, USA) was used to determine mode of cell death as per previous report. The HepG2 cells (8 × 10^5 cell/mL) were seeded in a 24-well plate and incubated for 24 h. The compounds at a concentration of 1 x IC50 and 2 x IC50 were added and incubated for 12 and 24 h. After that, cells were washed with PBS and cold BioLegend’s cell staining buffer followed by staining with Annexin V-FITC and PI and cell were incubated in the dark for 15 min. The cells were analyzed by flow cytometry (BD FACSCanto II, BD Biosciences, San Jose, CA, USA) and the percentage of cells in different populations were calculated with FACSDiva software.

Compound	DPPH Assay IC50 [5]	IC50 [5]	IC50 ([6]; Homo sapiens, HepG2)	IC50 ([3]; Homo sapiens, SK-LU-1)	IC50 ([4]; Homo sapiens, HCT-116)	IC50 Vero [1]	FRAP Value [2]	Selectivity Index SK-LU-1 [3]	Selectivity Index HCT116 [4]	DPPH radical scavenging activity classification [5]	Selectivity Index HepG2 [6]	further results
COc1ccc2c(c1)[nH]c1c(CC=C(C)C)c(O)c(C=O)cc12 [7-Methoxyheptaphylline (7), 7-methoxyheptaphylline]	96.8 ± 1.1^g µg/mL	313 ± 3.4 µM	65.5 ± 2.7 µM	–	–	inactive^bB	1.4 ± 0.1^g µM FeSO4 Equivalents	1.0)	(1.0)	low radical scavenger	(1.5)	FRAP Value ([2]; listed as 7-methoxyheptaphylline): 1.4 µM FeSO4 Equivalents; IC50 SK-LU-1 [3]: inactive^bF; IC50 HCT116 [4]: inactive^bE
N.N.[Cl][Pt][Cl] [Cisplatin, reference compound]	–	–	–	–	–	inactive^dB	–	(2.3)	(1.4)	–	(4.6)	IC50 [3]: 42.7 ± 1.9 µM; IC50 [4]: 71.9 ± 2.7 µM; IC50 [6]: 21.8 ± 3 µM
C=CC(C)(C)c1c2c(c(OC)c3ccc(=O)oc13)C=CC(C)(C)O2 [Dentatin (3), dentatin]	>500^h µg/mL	> 500 µM	47.6 ± 2.8 µM	45.4 ± 2.5 µM	73.9 ± 2.5 µM	inactive^cB	4.7 ± 0.1^f µM FeSO4 Equivalents	(2.2)	(1.4)	no activity	(2.1)	FRAP Value ([2]; listed as dentatin): 4.7 µM FeSO4 Equivalents
CC(C)=CCc1c(O)c(C=O)cc2c1[nH]c1ccccc12 [Heptaphylline (1), heptaphylline]	93.5 ± 2.2^f µg/mL	335 ± 7.8 µM	37.8 ± 2.6 µM	83.1 ± 2.6 µM	74.7 ± 2.1 µM	inactive^dB	1.0 ± 0.0^g µM FeSO4 Equivalents	(1.2)	(1.3)	low radical scavenger	(2.6)	FRAP Value ([2]; listed as heptaphylline): 1.0 µM FeSO4 Equivalents
COc1c2c(cc3oc(=O)ccc13)OC(C)(C)C=C2 [Xanthoxyletin (4), xanthoxyletin]	63.8 ± 0.8^d µg/mL	247 ± 3 µM	78.2 ± 2.2 µM	94.4 ± 2.2 µM	79.8 ± 2.8 µM	inactive^cB	5.2 ± 0.3^f µM FeSO4 Equivalents	(1.1)	(1.3)	low radical scavenger	(1.3)	FRAP Value ([2]; listed as xanthoxyletin): 5.2 µM FeSO4 Equivalents; necrotic cell death percentage (Q1, Annexin V-FITC/PI −/+) ([7]; HepG2, 1 × IC50, 12 h): 2.5 ± 0.7%; apoptotic cell death percentage (total, Quadrants 4 and 2) ([7]; HepG2, 1 × IC50, 24 h): 49.7 ± 1.1%; necrotic cell death percentage (Q1, Annexin V-FITC/PI −/+) ([7]; HepG2, 1 × IC50, 24 h): 1.6 ± 0.9%; apoptotic cell death percentage (total, Quadrants 4 and 2) ([7]; HepG2, 2 × IC50, 12 h): 49.6 ± 1.2%; necrotic cell death percentage (Q1, Annexin V-FITC/PI −/+) ([7]; HepG2, 2 × IC50, 12 h): 2.9 ± 1.2%; apoptotic cell death percentage (total, Quadrants 4 and 2) ([7]; HepG2, 2 × IC50, 24 h): 64.2 ± 3.2%; necrotic cell death percentage (Q1, Annexin V-FITC/PI −/+) ([7]; HepG2, 2 × IC50, 24 h): 2.7 ± 1.1%

Further lines, with some results ahead:

DPPH Assay IC50 [5]	IC50 [5]	IC50 ([6]; Homo sapiens, HepG2)	IC50 ([3]; Homo sapiens, SK-LU-1)	IC50 ([4]; Homo sapiens, HCT-116)	Compound	IC50 Vero [1]	FRAP Value [2]	Selectivity Index SK-LU-1 [3]	Selectivity Index HCT116 [4]	DPPH radical scavenging activity classification [5]	Selectivity Index HepG2 [6]	further results
6.8 ± 0.5^b µg/mL	26.2 ± 2 µM	82.6 ± 2.8 µM	–	–	COc1ccc2c(c1)[nH]c1cc(O)c(C=O)cc12 [7-Methoxymukonal (5), 7-methoxymukonal]	inactive^bB	47.0 ± 0.6^a µM FeSO4 Equivalents	(1.0)	(1.0)	moderate radical scavenger	(1.2)	FRAP Value ([2]; listed as 7-methoxymukonal): 47.0 µM FeSO4 Equivalents; IC50 SK-LU-1 [3]: inactive^bF; IC50 HCT116 [4]: inactive^bE
12.0 ± 0.8^c µg/mL	38.3 ± 2.5 µM	29.9 ± 3.2 µM	67.3 ± 1.2 µM	63.6 ± 2.3 µM	C=CC(C)(C)c1c2c(c(O)c3ccc(=O)oc13)C=CC(C)(C)O2 [Nordentatin (6), nordentatin]	inactive^cB	9.0 ± 1.1^e µM FeSO4 Equivalents	(1.5)	(1.6)	moderate radical scavenger	(3.3)	FRAP Value ([2]; listed as nordentatin): 9.0 µM FeSO4 Equivalents
4.2 ± 0.1^a µg/mL	16.8 ± 0.6 µM	–	–	–	Cc1c(C)c2c(c(C)c1O)CCC(C)(C(=O)O)O2 (stereo not shown) [Trolox, 6-hydroxy-2,5,7,8-tetramethylchroman-2-carboxylic acid, reference compound]	–	37.7 ± 0.8^c µM FeSO4 Equivalents	–	–	moderate radical scavenger	–	FRAP Value ([2]; listed as trolox): 37.7 µM FeSO4 Equivalents
